Experiment: SPECT/CT image-based normal organ dosimetry (MIRD S-value methodology), Phase I BET-PSMA-121
Assay type: in vivo, human
Settings: for Cumulative Absorbed Dose, Bone Marrow, % of dose limit / Cumulative Absorbed Dose, Kidney, % of dose limit / Cumulative Absorbed Dose, Salivary Glands, % of dose limit / Cumulative Absorbed Dose, Bone Marrow / Cumulative Absorbed Dose, Kidney / Cumulative Absorbed Dose, Salivary Glands: Cohort B; for Cumulative Absorbed Dose, Bone Marrow, % of dose limit: limit 2 Gy; for Cumulative Absorbed Dose, Salivary Glands, % of dose limit: limit 24 Gy
Source text: Figure 1 provides a schematic representation of the study. Enrolled patients were sequentially entered into one of the two cohorts. Cohort A received 5.55 GBq (150 mCi) of ^177Lu-rhPSMA-10.1 and Cohort B received 7.40 GBq (200 mCi) of ^177Lu-rhPSMA-10.1. Subsequent doses were delivered at 6-week intervals subject to individual tolerability and safety assessments. Each patient received between one and three cycles, with a maximum of three cycles of treatment being permitted in this initial part of the study. All administrations of ^177Lu-rhPSMA-10.1 were performed using intravenous injection under the supervision of the treating physician.
Multi-bed single-photon emission computed tomography (SPECT)/CT was conducted at 3-, 24-, 48- and 168-hours post-^177Lu-rhPSMA-10.1 administration in each treatment cycle for the estimation of organ and tumour absorbed doses in each patient. Prior to commencement of the study, each investigating site was required to complete a calibration of their dose calibrator and SPECT/CT system to ensure harmonised quantification of the imaging data. Quantitative reconstructions and all dosimetry analyses were carried out centrally by an independent dosimetry vendor (Radiopharmaceutical Imaging and Dosimetry LLC, Baltimore, MD).
The specific absorbed doses (Gy/GBq) in normal organs and tumours were determined using the Medical Internal Radiation Dose (MIRD) Committee S-value methodology. Individual patient organ masses, determined via CT delineation, were scaled to reflect deviations from reference phantom geometry. Cumulative organ absorbed doses (Gy) were calculated across all treatment cycles. Further details on dosimetry methodology are provided in the supplemental materials and have been reported in accordance with EANM guidance.
All patients underwent multi-bed single-photon emission computed tomography (SPECT)/CT at 3-, 24-, 48- and 168-hours post-^177Lu-rhPSMA-10.1 administration during each treatment cycle. The acquisition parameters are shown in Supplemental Table S1. All images were centrally reconstructed in 3D-RD-S using the iterative Ordered Subsets Expectation-Maximization (OSEM) algorithm with 40 iterations and 5 subsets. Attenuation, scatter, and the Collimator-Detector Response Function (CDRF) were modelled during the iterative process using a rotation-based projector. CT-based attenuation compensation was performed using the attenuation map generated from the CT image. Scatter was modelled using the Effective Source Scatter Estimation (ESSE) method.
Reconstructed images were converted to activity concentration units (Becquerel (Bq)/millilitre (mL)) using the calibration factor generated for each individual imaging system. Organ masses were individually determined using CT-based delineations and longitudinal SPECT activity statistics were based on these same delineations.
Time integrated activity coefficients (TIACs) were calculated for each target tissue. This was done by fitting each time–activity curve with an exponential function (mono, bi, or exponential uptake and washout) and integrating from time 0 to infinity. The simpler function was preferred provided the fit was adequate ([…]).
The TIAC in the bone marrow was derived from contours drawn around the marrow inside lumbar vertebrae L3–L5. Where lesions were present in the lumbar area, contours were drawn around either the femur heads, scapula or sternum depending on the anatomical coverage. The TIAC was then divided by the marrow mass in this region to give the TIAC concentration. The total bone marrow TIAC was be obtained as the product of this concentration and the standard International Commission on Radiological Protection (ICRP) bone marrow mass.
The S-value methodology was used to estimate the target tissue dose. […]

[1] = Patient 4, 3 cycles, 22.94 GBq cumulative
[2] = Patient 5, 3 cycles, 22.29 GBq cumulative
[3] = Patient 6, 3 cycles, 22.59 GBq cumulative
[4] = Patient 7, 3 cycles, 22.29 GBq cumulative
[5] = Patient 8, 3 cycles, 22.86 GBq cumulative
[6] = Patient 9, 3 cycles, 22.10 GBq cumulative
[7] = Patient 10, 3 cycles, 23.30 GBq cumulative
[8] = Patient 11, 1 cycle, 7.80 GBq cumulative
[9] = Patient 12, 1 cycle, 7.46 GBq cumulative
[10] = Patient 13, 3 cycles, 22.23 GBq cumulative

CC(C)(C)[Si](F)(c1ccc(C(=O)NC[C@@H](NC(=O)CN2CCN(CC(=O)[O-])CCN(CC(=O)[O-])CCN(CC(=O)[O-])CC2)C(=O)N[C@H](CCCCNC(=O)CCC(=O)NCCC[C@@H](NC(=O)CC[C@H](NC(=O)N[C@@H](CCC(=O)O)C(=O)O)C(=O)O)C(=O)O)C(=O)O)cc1)C(C)(C)C.[177Lu+3] [^177Lu-rhPSMA-10.1]
Cumulative Absorbed Dose, Bone Marrow, % of dose limit [1]: 6.5% | Cumulative Absorbed Dose, Kidney, % of dose limit (Patient 4, 3 cycles, 22.94 GBq cumulative, limit 23 Gy): 36% | Cumulative Absorbed Dose, Salivary Glands, % of dose limit [1]: 12% | Cumulative Absorbed Dose, Bone Marrow [2]: 0.07 Gy | Cumulative Absorbed Dose, Kidney [2]: 6.25 Gy | Cumulative Absorbed Dose, Salivary Glands [2]: 2.85 Gy | Cumulative Absorbed Dose, Bone Marrow, % of dose limit [2]: 3.5% | Cumulative Absorbed Dose, Kidney, % of dose limit (Patient 5, 3 cycles, 22.29 GBq cumulative, limit 23 Gy): 27% | Cumulative Absorbed Dose, Salivary Glands, % of dose limit [2]: 12% | Cumulative Absorbed Dose, Bone Marrow [3]: 0.42 Gy | Cumulative Absorbed Dose, Kidney [3]: 7.31 Gy | Cumulative Absorbed Dose, Salivary Glands [3]: 2.87 Gy | Cumulative Absorbed Dose, Bone Marrow, % of dose limit [3]: 21% | Cumulative Absorbed Dose, Kidney, % of dose limit (Patient 6, 3 cycles, 22.59 GBq cumulative, limit 23 Gy): 32% | Cumulative Absorbed Dose, Salivary Glands, % of dose limit [3]: 12% | Cumulative Absorbed Dose, Bone Marrow [4]: 0.05 Gy | Cumulative Absorbed Dose, Kidney [4]: 4.02 Gy | Cumulative Absorbed Dose, Salivary Glands [4]: 2.88 Gy | Cumulative Absorbed Dose, Bone Marrow, % of dose limit [4]: 2.5% | Cumulative Absorbed Dose, Kidney, % of dose limit (Patient 7, 3 cycles, 22.29 GBq cumulative, limit 23 Gy): 17% | Cumulative Absorbed Dose, Salivary Glands, % of dose limit [4]: 12% | Cumulative Absorbed Dose, Bone Marrow [5]: 0.24 Gy | Cumulative Absorbed Dose, Kidney [5]: 5.18 Gy | Cumulative Absorbed Dose, Salivary Glands [5]: 1.17 Gy | Cumulative Absorbed Dose, Bone Marrow, % of dose limit [5]: 12% | Cumulative Absorbed Dose, Kidney, % of dose limit (Patient 8, 3 cycles, 22.86 GBq cumulative, limit 23 Gy): 23% | Cumulative Absorbed Dose, Salivary Glands, % of dose limit [5]: 4.9% | Cumulative Absorbed Dose, Bone Marrow [6]: 0.05 Gy | Cumulative Absorbed Dose, Kidney [6]: 5.18 Gy | Cumulative Absorbed Dose, Salivary Glands [6]: 2.00 Gy | Cumulative Absorbed Dose, Bone Marrow, % of dose limit [6]: 2.5% | Cumulative Absorbed Dose, Kidney, % of dose limit (Patient 9, 3 cycles, 22.10 GBq cumulative, limit 23 Gy): 23% | Cumulative Absorbed Dose, Salivary Glands, % of dose limit [6]: 8.3% | Cumulative Absorbed Dose, Bone Marrow [7]: 0.03 Gy | Cumulative Absorbed Dose, Kidney [7]: 4.29 Gy | Cumulative Absorbed Dose, Salivary Glands [7]: 0.82 Gy | Cumulative Absorbed Dose, Bone Marrow, % of dose limit [7]: 1.5% | Cumulative Absorbed Dose, Kidney, % of dose limit (Patient 10, 3 cycles, 23.30 GBq cumulative, limit 23 Gy): 19% | Cumulative Absorbed Dose, Salivary Glands, % of dose limit [7]: 3.4% | Cumulative Absorbed Dose, Bone Marrow [8]: 0.23 Gy | Cumulative Absorbed Dose, Kidney [8]: 1.52 Gy | Cumulative Absorbed Dose, Salivary Glands [8]: 0.88 Gy | Cumulative Absorbed Dose, Bone Marrow, % of dose limit [8]: 11% | Cumulative Absorbed Dose, Kidney, % of dose limit (Patient 11, 1 cycle, 7.80 GBq cumulative, limit 23 Gy): 6.6% | Cumulative Absorbed Dose, Salivary Glands, % of dose limit [8]: 3.7% | Cumulative Absorbed Dose, Bone Marrow [9]: 0.04 Gy | Cumulative Absorbed Dose, Kidney [9]: 1.71 Gy | Cumulative Absorbed Dose, Salivary Glands [9]: 0.79 Gy | Cumulative Absorbed Dose, Bone Marrow, % of dose limit [9]: 2.0% | Cumulative Absorbed Dose, Kidney, % of dose limit (Patient 12, 1 cycle, 7.46 GBq cumulative, limit 23 Gy): 7.4% | Cumulative Absorbed Dose, Salivary Glands, % of dose limit [9]: 3.3% | Cumulative Absorbed Dose, Bone Marrow [10]: 0.05 Gy | Cumulative Absorbed Dose, Kidney [10]: 4.63 Gy | Cumulative Absorbed Dose, Salivary Glands [10]: 3.40 Gy | Cumulative Absorbed Dose, Bone Marrow, % of dose limit [10]: 2.5% | Cumulative Absorbed Dose, Kidney, % of dose limit (Patient 13, 3 cycles, 22.23 GBq cumulative, limit 23 Gy): 20% | Cumulative Absorbed Dose, Salivary Glands, % of dose limit [10]: 14% | Cumulative absorbed doses versus historical EBRT organ dose limits (all patients, both dosing cohorts): below the historical external beam radiation therapy (EBRT) organ dose limits | Equivalent number of treatment cycles to reach the EBRT kidney dose limit of 23 Gy (at 7.4 GBq per cycle, range across the 13 patients): 6–17 cycles | Cumulative absorbed dose to the kidney as % of the EBRT dose limit, highest reached (limit 23 Gy, maximum of three cycles): ≤ 36%

Source: paper PMC12491383, “Organ and tumour dosimetry of ^177Lu-rhPSMA-10.1, a novel PSMA-targeted therapy: results from a Phase I trial” (European Journal of Nuclear Medicine and Molecular Imaging, 2025)
